Laboratory results taken from patent publication US20110053991A1, “Treatment of Histone Deacetylase Mediated Disorders” (priority 2007, published 2011).
Each block holds one compound with its values, some of them ahead of it.

Assays:
Assay type in all cases: cell-based
[1] = system: mixed lineage leukemia cell lines; test: Apoptotic and dead cells by flow cytometry (YO-PRO-1 / propidium iodide); conditions: 48 hours; FIG. 2
Experimental: Apoptotic and dead cells were identified by flow cytometric analysis of cells stained with propidium iodide and YO-PRO®-1. Cells undergoing apoptosis are stained with YO-PRO®-1, but are impermeable to propidium iodide. Dead cells and cells in late apoptosis are permeable to both dyes. Viable cells are not stained by either dye. Mean (+/−SEM) percentages of apoptotic and dead cells were derived from 3-7 independent experiments.
(§1) Alternatively, an ALL cell line (REH) was treated with Trichostatin A (TSA), sodium phenyl butyrate (SPB), or vehicle only for 48 hours. MTT or BrdU were added for 4 hours. The relative number of viable cells, as indicated by MTT reduction, was determined (FIG. 1A and Table 1). The relative number of proliferating cells, as indicated by BrdU-incorporation, was measured using an ELISA assay (FIG. 1B). IC50 values were calculated using non-linear regression (Table 1). The percentages of apoptotic and dead cells were determined by flow cytometric analysis of cells stained with YO-PRO®-1 and propidium iodide (FIGS. 2 and 5A). DNA content was determined by flow cytometric analysis of propidium iodide stained cells. The fractions of cells with G1, S, and G2/M phase DNA contents were determined (FIGS. 3 and 5B).

Jurkat = test: MTT assay, cell number relative to vehicle; conditions: Homo sapiens, T Cell Lymphoblastic Leukemia, 48 hours
SEM cells = test: MTT assay, cell number relative to vehicle; conditions: SEM (MLL-AF4), Biphenotypic Leukemia with Lymphoblastic Features, 48 hours
Nalm-6 = test: MTT assay, cell number relative to vehicle; conditions: Homo sapiens, Nalm-6 (PDGFRβ-TEL), B Cell Lymphoblastic Leukemia, 48 hours
Molt-3 = test: MTT assay, cell number relative to vehicle; conditions: Homo sapiens, Molt-3, T Cell Lymphoblastic Leukemia, 48 hours
Molt-4 = test: MTT assay, cell number relative to vehicle; conditions: Homo sapiens, Molt-4, T Cell Lymphoblastic Leukemia, 48 hours
Molm-13 = test: MTT assay, cell number relative to vehicle; conditions: Homo sapiens, Molm-13 (MLL-AF9), Biphenotypic Leukemia with Myeloid Features, 48 hours
U937 = test: MTT assay, cell number relative to vehicle; conditions: Homo sapiens, U-937, U937, Myeloid Leukemia, 48 hours
HSB-2 = test: MTT assay, cell number relative to vehicle; conditions: HSB2, HSB-2 (LCK-TCRβ), T Cell Lymphoblastic Leukemia, 48 hours
NOMO-1 = test: MTT assay, cell number relative to vehicle; conditions: Homo sapiens, NOMO-1 (MLL-AF9), Biphenotypic Leukemia with Myeloid Features, 48 hours
CEM = test: MTT assay, cell number relative to vehicle; conditions: Homo sapiens, CCRF-CEM, T Cell Lymphoblastic Leukemia, 48 hours
EOL-1 = test: MTT assay, cell number relative to vehicle; conditions: Homo sapiens, EOL1, EOL-1 (FIP1L1-PDGFRα), Myeloid Leukemia, 48 hours
UOCB1 = test: MTT assay, cell number relative to vehicle; conditions: Homo sapiens, UoC-B1, UOCB1 (E2A-HLF), B Cell Lymphoblastic Leukemia, 48 hours
RCH-AcV = test: MTT assay, cell number relative to vehicle; conditions: RCH-AcV (E2A-PBX1), B Cell Lymphoblastic Leukemia, 48 hours
REH = test: MTT assay, cell number relative to vehicle; conditions: Homo sapiens, REH (TEL-AML1), B Cell Lymphoblastic Leukemia, 48 hours
Experimental: as §1

HEL = test: MTT assay, cell number relative to vehicle; conditions: Homo sapiens, Myeloid Leukemia, 48 hours
KOPN-8 = test: MTT assay, cell number relative to vehicle; conditions: Homo sapiens, KOPN-8 (MLL-ENL), Biphenotypic Leukemia with Lymphoblastic Features, 48 hours
Molm-14 = test: MTT assay, cell number relative to vehicle; conditions: Homo sapiens, Molm-14 (MLL-AF9), Biphenotypic Leukemia with Myeloid Features, 48 hours
THP-1 = test: MTT assay, cell number relative to vehicle; conditions: Homo sapiens, THP-1 (MLL-AF9), Biphenotypic Leukemia with Myeloid Features, 48 hours
HL-60 = test: MTT assay, cell number relative to vehicle; conditions: Homo sapiens, HL-60, Myeloid Leukemia, 48 hours
KG1 = test: MTT assay, cell number relative to vehicle; conditions: Homo sapiens, KG-1, KG1, Myeloid Leukemia, 48 hours
MV4-11 = test: MTT assay, cell number relative to vehicle; conditions: Homo sapiens, MV4-11 (MLL-AF4), Biphenotypic Leukemia with Myeloid Features, 48 hours
RS4; 11 = test: MTT assay, cell number relative to vehicle; conditions: Homo sapiens, 11 (MLL-AF4), Biphenotypic Leukemia with Lymphoblastic Features, 48 hours
HAL-01 = test: MTT assay, cell number relative to vehicle; conditions: Homo sapiens, HAL-01 (TCF3/E2A-HLF), B Cell Lymphoblastic Leukemia, 48 hours

IC50 (Jurkat): 0.81 µM
Compound: O=C(CCCCCCC(=O)Nc1ccccc1)NO [vorinostat, N′-hydroxy-N-phenyl-octanediamide]
induction of cell death (apoptotic and dead cells) [1]: dose-dependent cell death

IC50 (Molt-3): 0.866 µM | IC50 (Molt-4): 0.721 µM | IC50 (Molm-13): 0.758 µM | IC50 (U937): 1 µM | IC50 (Molm-14): 0.839 µM | IC50 (THP-1): 4.45 µM | IC50 (HL-60): 0.69 µM | IC50 (MV4-11): 0.362 µM | IC50 (RS4; 11): 2.42 µM | IC50 (Jurkat): 1.27 µM
Compound: Nc1ccccc1NC(=O)c1ccc(CNC(=O)OCc2cccnc2)cc1 [entinostat, N-(2-aminophenyl)-4-(N-(pyridin-3-ylmethoxycarbonyl)aminomethyl)benzamide]
IC50 (SEM cells): 0.25 µM | induction of cell death (apoptotic and dead cells) [1]: dose-dependent cell death | IC50 (Nalm-6): 0.801 µM | IC50 (HSB-2): 1.29 µM | IC50 (NOMO-1): 0.587 µM | IC50 (CEM): 1.28 µM | IC50 (EOL-1): 0.12 µM | IC50 (UOCB1): 0.686 µM | IC50 (RCH-AcV): 0.723 µM | IC50 (REH): 1.5 µM | IC50 (HEL): 0.957 µM | IC50 (KOPN-8): 0.396 µM | IC50 (KG1): 1.54 µM | IC50 (HAL-01): 0.499 µM
